PMC8245078, “Development of novel benzofuran-isatin conjugates as potential antiproliferative agents with apoptosis inducing mechanism in Colon cancer” (Journal of Enzyme Inhibition and Medicinal Chemistry, 2021)
Like-named read-outs stand apart in the source and are kept apart here.

Legend:
Assay in all cases: NCI single dose screening (10 µM)
Assay type in all cases: cell-based
SF-268 = details: Homo sapiens
SR = details: Homo sapiens, read-out: GI% (cell growth inhibition percentage)
MDA-MB-468 = details: Homo sapiens
HT-29 = details: Homo sapiens
MDA-MB-231/ATCC = details: Homo sapiens
MDA-MB-435 = details: Homo sapiens
OVCAR-4 = details: Homo sapiens
U251 = details: Homo sapiens
K-562 = details: Homo sapiens
OVCAR-3 = details: Homo sapiens
OVCAR-5 = details: Homo sapiens
ACHN = details: Homo sapiens, read-out: GI% (cell growth inhibition percentage)
SW-620 = details: Homo sapiens
DU-145 = details: Homo sapiens
MOLT-4 = details: Homo sapiens
T-47D = details: Homo sapiens, T47D, read-out: GI% (cell growth inhibition percentage)
UO-31 = details: Homo sapiens
BT-549 = details: Homo sapiens
SF-539 = details: Homo sapiens
SF-295 = details: Homo sapiens
SK-MEL-28 = details: Homo sapiens
IGROV1 = details: Homo sapiens
SN12C = details: Homo sapiens, read-out: GI% (cell growth inhibition percentage)
HOP-92 = details: Homo sapiens
COLO 205 = details: Homo sapiens
HL-60(TB) = details: Homo sapiens
MALME-3M = details: Homo sapiens, read-out: GI% (cell growth inhibition percentage)
EKVX = details: Homo sapiens, read-out: GI% (cell growth inhibition percentage)
HS 578 T = details: Homo sapiens, read-out: GI% (cell growth inhibition percentage)
HCC-2998 = details: Homo sapiens
M14 = details: Homo sapiens
CAKI-1 = details: Homo sapiens
[1] = Renal cancer, single dose 10^−5 M

Cc1c(C(=O)N/N=C2\C(=O)N(C)c3ccccc32)oc2ccccc12 [Compound 7a]
inhibition at 10 µM (SF-268; SF-268, CNS cancer, single dose 10^−5 M, read-out: GI% (cell growth inhibition percentage)): < 10% | inhibition at 10 µM (SR; Leukaemia, single dose 10^−5 M): < 10% | inhibition at 10 µM (MDA-MB-468; MDA-MB-468, Breast cancer, single dose 10^−5 M, read-out: GI% (cell growth inhibition percentage)): < 10% | inhibition at 10 µM (HT-29; HT-29, Colon cancer, single dose 10^−5 M, read-out: GI% (cell growth inhibition percentage)): < 10% | inhibition at 10 µM (MDA-MB-231/ATCC; MDA-MB-231/ATCC, Breast cancer, single dose 10^−5 M, read-out: GI% (cell growth inhibition percentage)): < 10% | inhibition at 10 µM (MDA-MB-435; MDA-MB-435, Melanoma, single dose 10^−5 M, read-out: GI% (cell growth inhibition percentage)): < 10% | inhibition at 10 µM (OVCAR-4; OVCAR-4, Ovarian cancer, single dose 10^−5 M, read-out: GI% (cell growth inhibition percentage)): < 10% | inhibition at 10 µM (U251; U-251, U251, CNS cancer, single dose 10^−5 M, read-out: GI% (cell growth inhibition percentage)): < 10% | inhibition at 10 µM (K-562; K562, K-562, Leukaemia, single dose 10^−5 M, read-out: GI% (cell growth inhibition percentage)): < 10% | inhibition at 10 µM (OVCAR-3; OVCAR-3, Ovarian cancer, single dose 10^−5 M, read-out: GI% (cell growth inhibition percentage)): < 10% | inhibition at 10 µM (OVCAR-5; OVCAR-5, Ovarian cancer, single dose 10^−5 M, read-out: GI% (cell growth inhibition percentage)): < 10% | inhibition at 10 µM (ACHN; [1]): < 10% | inhibition at 10 µM (SW-620; SW-620, Colon cancer, single dose 10^−5 M, read-out: GI% (cell growth inhibition percentage)): 30.6% | inhibition at 10 µM (DU-145; DU-145, Prostate cancer, single dose 10^−5 M, read-out: GI% (cell growth inhibition percentage)): < 10% | inhibition at 10 µM (MOLT-4; MOLT-4, Leukaemia, single dose 10^−5 M, read-out: GI% (cell growth inhibition percentage)): < 10% | inhibition at 10 µM (T-47D; T-47D, Breast cancer, single dose 10^−5 M): 21.8% | inhibition at 10 µM (UO-31; UO-31, Renal cancer, single dose 10^−5 M, read-out: GI% (cell growth inhibition percentage)): < 10% | inhibition at 10 µM (BT-549; BT-549, Breast cancer, single dose 10^−5 M, read-out: GI% (cell growth inhibition percentage)): < 10% | inhibition at 10 µM (SF-539; SF-539, CNS cancer, single dose 10^−5 M, read-out: GI% (cell growth inhibition percentage)): < 10% | inhibition at 10 µM (SF-295; SF-295, CNS cancer, single dose 10^−5 M, read-out: GI% (cell growth inhibition percentage)): 11.8% | inhibition at 10 µM (SK-MEL-28; SK-MEL-28, Melanoma, single dose 10^−5 M, read-out: GI% (cell growth inhibition percentage)): < 10% | inhibition at 10 µM (IGROV1; IGROV-1, IGROV1, Ovarian cancer, single dose 10^−5 M, read-out: GI% (cell growth inhibition percentage)): 32.8% | inhibition at 10 µM (SN12C; [1]): < 10% | inhibition at 10 µM (HOP-92; HOP-92, Non-small cell lung cancer, single dose 10^−5 M, read-out: GI% (cell growth inhibition percentage)): < 10% | inhibition at 10 µM (COLO 205; COLO 205, Colon cancer, single dose 10^−5 M, read-out: GI% (cell growth inhibition percentage)): < 10% | inhibition at 10 µM (HL-60(TB); HL-60(TB), Leukaemia, single dose 10^−5 M, read-out: GI% (cell growth inhibition percentage)): < 10% | inhibition at 10 µM (MALME-3M; MALME-3M, Melanoma, single dose 10^−5 M): < 10% | inhibition at 10 µM (EKVX; Non-small cell lung cancer, single dose 10^−5 M): 25.1% | inhibition at 10 µM (HS 578 T; HS 578 T, Breast cancer, single dose 10^−5 M): < 10% | inhibition at 10 µM (HCC-2998; HCC-2998, Colon cancer, single dose 10^−5 M, read-out: GI% (cell growth inhibition percentage)): < 10% | inhibition at 10 µM (M14; M14, Melanoma, single dose 10^−5 M, read-out: GI% (cell growth inhibition percentage)): < 10% | inhibition at 10 µM (CAKI-1; CAKI-1, Renal cancer, single dose 10^−5 M, read-out: GI% (cell growth inhibition percentage)): 19.4%

CCCN1C(=O)/C(=N\NC(=O)c2oc3ccccc3c2C)c2ccccc21 [Compound 7b]
inhibition at 10 µM (SF-268; SF-268, read-out: GI% (cell growth inhibition percentage)): < 10% | inhibition at 10 µM (SR): < 10% | inhibition at 10 µM (MDA-MB-468; MDA-MB-468, read-out: GI% (cell growth inhibition percentage)): < 10% | inhibition at 10 µM (HT-29; HT-29, read-out: GI% (cell growth inhibition percentage)): < 10% | inhibition at 10 µM (MDA-MB-231/ATCC; MDA-MB-231, read-out: GI% (cell growth inhibition percentage)): 29% | inhibition at 10 µM (MDA-MB-435; MDA-MB-435, read-out: GI% (cell growth inhibition percentage)): < 10% | inhibition at 10 µM (OVCAR-4; OVCAR-4, read-out: GI% (cell growth inhibition percentage)): < 10% | inhibition at 10 µM (U251; U-251, read-out: GI% (cell growth inhibition percentage)): < 10% | inhibition at 10 µM (K-562; K562, read-out: GI% (cell growth inhibition percentage)): 11.4% | inhibition at 10 µM (OVCAR-3; OVCAR-3, read-out: GI% (cell growth inhibition percentage)): < 10% | inhibition at 10 µM (OVCAR-5; OVCAR-5, read-out: GI% (cell growth inhibition percentage)): < 10% | inhibition at 10 µM (ACHN): 11.6% | inhibition at 10 µM (SW-620; SW-620, read-out: GI% (cell growth inhibition percentage)): < 10% | inhibition at 10 µM (DU-145; DU-145, read-out: GI% (cell growth inhibition percentage)): < 10% | inhibition at 10 µM (MOLT-4; MOLT-4, read-out: GI% (cell growth inhibition percentage)): < 10% | inhibition at 10 µM (T-47D): 23.8% | inhibition at 10 µM (UO-31; UO-31, read-out: GI% (cell growth inhibition percentage)): 34.3% | inhibition at 10 µM (BT-549; BT-549, read-out: GI% (cell growth inhibition percentage)): < 10% | inhibition at 10 µM (SF-539; SF-539, read-out: GI% (cell growth inhibition percentage)): < 10% | inhibition at 10 µM (SF-295; SF-295, read-out: GI% (cell growth inhibition percentage)): 11.9% | inhibition at 10 µM (SK-MEL-28; SK-MEL-28, read-out: GI% (cell growth inhibition percentage)): < 10% | inhibition at 10 µM (IGROV1; IGROV-1, read-out: GI% (cell growth inhibition percentage)): 42.5% | inhibition at 10 µM (SN12C): < 10% | inhibition at 10 µM (HOP-92; HOP-92, read-out: GI% (cell growth inhibition percentage)): < 10% | inhibition at 10 µM (COLO 205; COLO 205, read-out: GI% (cell growth inhibition percentage)): < 10% | inhibition at 10 µM (HL-60(TB); HL-60, read-out: GI% (cell growth inhibition percentage)): 10.9% | inhibition at 10 µM (MALME-3M; Malme-3M): < 10% | inhibition at 10 µM (EKVX): 32.4% | inhibition at 10 µM (HS 578 T; Hs-578T): < 10% | inhibition at 10 µM (HCC-2998; HCC 2998, read-out: GI% (cell growth inhibition percentage)): < 10% | inhibition at 10 µM (M14; M14, read-out: GI% (cell growth inhibition percentage)): < 10% | inhibition at 10 µM (CAKI-1; CAKI-1, read-out: GI% (cell growth inhibition percentage)): 11.3%
